In experiment [1] the test system is contusion injuries to the spinal cord. Briefly: Behavioral analysis of motor function after spinal cord contusion injury. Format: in vivo, Long Evans rats. The conditions noted are these: rats. How it is done: Experiments were initiated with behavioral analysis of rats receiving contusion injuries to the spinal cord, which is one of the most widely studied of all experimental models of traumatic injury. 8-10 week old Long Evans rats (female) underwent laminectomy at thoracic vertebrae 9 and a 200 kilodyne impact was delivered to the spinal cord using an the Infinite Horizons impactor. Animals were allowed to recover on a heated pad and then treatment was started 24 hours after surgery in order to determine whether a clinically useful window of opportunity for initiation of treatment exists for use of this intervention. Animals received 1 mg/kg 4-AP twice a day for seven days, then received 1 mg/kg 4-AP […] for the following seven days. After two weeks, the animals were taken off 4-AP entirely and allowed to continue for 2 weeks to test for stability of recovery.
FIGS. 1-4 provide evidence of enhanced recovery of a variety of aspects of motor function. […] Of particular interest were observations that when rats were switched to once-a-day administration of 4-AP and all behavioral analyses were conducted at a time point when the 4-AP half-life in rats predicts that levels in vivo were far below those necessary to observe any effects on motor function, recovery of function was still seen at a time when active levels of 4-AP would not have been present. […] FIG. 2 provides information on the speed of the paw during its swing movement (i.e., stride length/swing time). […] FIG. 3 provides information on the distance between the outer toes (i.e., toe spread), a sensitive indicator of normal motor function in the foot itself. […] In contrast, rats treated with 4-AP show normal behavior beginning 10 days post-injury, and this behavior is maintained when drug treatment ends at day 14. FIG. 4 provides information on the length of the foot print, a sensitive indicator of normal motor function in the foot itself. […] In contrast, rats treated with 4-AP show normal behavior beginning 10 days post-injury, and this behavior is maintained when drug treatment ends at day 14. All improvements were durable when treatment was stopped at 2 weeks post-injury.

In experiment [2] the test system is glial fibrillary acidic protein (GFAP). Briefly: GFAP labeling (scarring marker) in spinal cord sections after contusion injury. It counts as in vivo. The settings on record: rats with spinal cord contusion, compared with saline. An excerpt: FIG. 6A and FIG. 6B are images illustrating a section of spinal cords of placebo (saline) (FIG. 6A) and 4-AP (FIG. 6B) treated animals labeled with antibody against glial fibrillary acidic protein (GFAP), which is a marker of scarring in all regions of the central nervous system, (bright spots in FIG. 6A) and DAPI (bright spots in FIG. 6B). indicates the lesion edge. The size bar represents 100 μm. […] These outcomes provide further evidence that 4-AP administration is regulating a response to traumatic injury that is of relevance to traumatic injury in all tissues.
FIGS. 6A-6B further examines expression of a protein called glial fibrillary acidic protein (GFAP), which is one of the markers of scarring in all regions of the central nervous system. […] These outcomes provide further evidence that 4-AP administration is regulating a response to traumatic injury that is of relevance to traumatic injury in all tissues.

For experiment [3], the system named is traumatic damage to the peripheral nervous system. Briefly: Recovery of function after traumatic damage to the peripheral nervous system. It counts as in vivo. The settings on record: following traumatic damage to the peripheral nervous system.
The next experiment deals with sciatic nerve crush. Briefly: Electron microscopy of sciatic nerve after crush injury with local 4-AP PLGA films. Format: in vivo. An excerpt: A comparison of the axonal area of randomly chosen individual axons of vehicle treated and 4-AP treated mice (n=4 for each experimental group; 40 axons analyzed per mouse) is shown. […] (**: p<0.01; ANOVA).
In the experiment below, mice received crush injuries to the sciatic nerve and then a sustained release formulation of 4-AP in a PLGA formulation (4-AP films) was applied locally at the site of injury. At the time that nerve conduction velocity began to recover, nerves were isolated and studied by electron microscopy. […] In uninjured myelinated axons, the average area of a myelinated axon (excluding the myelin) was 11.2+/−1.3 μm^2. In injured nerves treated with PLGA film only, the average area of myelinated axons decreased to 5.7+/−0.2 μm^2 (FIG. 9A). In nerves treated with 4-AP-containing films, the average area of myelinated axons was 6.7+/−0.4 μm^2 (p<0.05 versus mice treated only with film). In addition, the proportion of axons with areas above the average value for uninjured nerves was 5+/−3% in injured nerves treated with vehicle alone but increased to 15+/−2% in nerves treated with 4-AP containing films (p<0.05).
On day 21 after injury, the average thickness of the myelin within the injured area was 0.53+/−0.03 μm but was 0.95+/−0.14 μm with localized 4-AP administration (p<0.01), as compared with an average myelin thickness in uninjured nerves of 1.26+/−0.08 μm. […] The myelin area was also measured (FIG. 9C, D) and it was determined that the average cross-sectional area of myelin per myelinated large axon in uninjured nerve was 14.8+/−1.7 μm^2, 4.9+/−0.3 μm^2 in injured nerve, and was restored to 10.1+/−0.7 μm^2 with localized 4-AP administration (p<0.01). In 4-AP treated mice, 21.2+/−9.3% of axons had myelin areas that were above the average for uninjured nerve, while this value in vehicle-treated mice was only 1.9+/−1.4%.
The benefits of treatment were also observed by analysis of the ratio of the area of the axon to the area of the axon plus associated myelin. This g^area ratio, a variant of the usually employed g-ratio, was calculated due to the decreased circularity in injured nerve. […] However, with local 4-AP treatment, the g^area-ratio was in the normal range of 0.43+/−0.09 (p<0.01) (FIG. 9D).
The number of total myelinated axons per TEM grid examined (2310 μm^2) was 82+/−5 axons in undamaged nerve, as compared with 55+/−4 axons in injured vehicle-treated mice and 71+/−4 axons in 4-AP treated mice (p<0.01 for vehicle-treated vs. 4-AP treated mice).

The next experiment has as its system skeletal muscle atrophy. Briefly: Skeletal muscle atrophy after complete denervation (nerve transection). Format: in vivo. How it is done: Treatment with 4AP decreased muscle expression of MuRF-1 (FIG. 11A) and myogenin (FIG. 11B) (both normalized to GADPH) after complete denervation. […] Thus, the beneficial effects of 4AP on parameters of atrophy were not dependent on restoration of normal motor usage. *=p<0.05; ** p<0.01.
In this example, the nerve innovating the extensor digitorum longus muscle was completely transected 15-25 mm distant from the muscle. 4-AP was then administered during the acute and subacute post-injury periods.

Where [4] appears, read: spinal cord contusion, 1 mg/kg 4-AP for 14 days, maintained after treatment ends at day 14.
The mark [5] stands for this setting: mice, localized 4-AP (PLGA films).
[6] abbreviates: after complete denervation, daily 4-AP.

The values below come from patent publication US20180271847A1, “TREATMENT OF ACUTE TRAUMATIC INJURY” (priority 2015, published 2018).

Molecules are shown by their SMILES.

In the case of `Nc1ccncc1` [4-AP, 4-aminopyridine], the “Basso, Beattie and Bresnahan (BBB) scores, recovery versus placebo (saline)” value in experiment [1] (200 kilodyne contusion at thoracic vertebrae 9, 1 mg/kg 4-AP twice a day for seven days then seven further days, started 24 hours after surgery) is “significant improvement over placebo (saline) treated rats as early as 3 days after treatment”. Besides, in experiment [1] (setting [4]), the “length of the foot print: normal behavior beginning” value worked out at 10 days post-injury and the “toe spread (distance between the outer toes): normal behavior beginning” value was 10 days post-injury. Moreover, the “return to normal swing speed (stride length/swing time)” value in experiment [1] (spinal cord contusion, 1 mg/kg 4-AP for 14 days, normal defined by sham surgery group, maintained after treatment ends at day 14) is at most 10 days post-injury. Moreover, in experiment [1] (spinal cord contusion, 1 mg/kg 4-AP for 14 days, through the rest of the 28 days of analysis), the “motor function after treatment was stopped 14 days after injury” value is recorded as “durable improvements in motor function”. Besides, in experiment [2], the “GFAP, marker of central nervous system scarring” value was “greatly decreased”. For the same compound, in experiment [3], the “recovery of motor function and electrophysiological function” value is “more rapid recovery of motor function and electrophysiological function”. Further, the “myelinated axons with a g^area-ratio less than the average for uninjured mice” value with sciatic nerve crush (21 days after injury) was 54.4+/−18.5%. The “average g^area-ratio (area of the axon to area of the axon plus associated myelin)” value with sciatic nerve crush (mice, 21 days after injury, local 4-AP treatment) was 0.43+/−0.09. Further, the “number of total myelinated axons per TEM grid examined (2310 μm^2)” value with sciatic nerve crush (mice, 21 days post injury) is 71+/−4 axons. Moreover, in the experiment on sciatic nerve crush (mice, day 21, localized 4-AP (PLGA films)), the “axons with myelin thickness above the average for uninjured nerve” value is recorded as 21.4+/−10.8%. Moreover, in the experiment with sciatic nerve crush (mice, day 21 after injury, localized 4-AP (PLGA films)), the “average thickness of the myelin within the injured area” value is given as 0.95+/−0.14 μm. In the experiment with sciatic nerve crush (setting [5]), the “average cross-sectional area of myelin per myelinated large axon” value is 10.1+/−0.7 μm^2 and the “axons with myelin areas above the average for uninjured nerve” value is 21.2+/−9.3%. Besides, in the experiment on skeletal muscle atrophy (setting [6]), the “muscle expression of MuRF-1 (normalized to GADPH)” value was “decreased” and the “muscle expression of myogenin (normalized to GADPH)” value is “decreased”. For the same compound, the “recovery of gait function” value in the experiment with skeletal muscle atrophy (denervated animals) is “did not show any recovery of gait function”.
